Laboratory results: PMC8787815 (2022)

System: 6xHis mCherry F30-2xdBroccoli mRNA transcript (RNA, aptamer) GGGAGACCACAACGGUUUCCCUCUAGAAAUAAUUUUGUUUAACUUUAAGAAGGAGAUAUACCAUGUCUGGUUCUCAUCAUCAUCAUCAUCAUGGUAGCAGCGGCGAAAACCUGUAUUUUCAGUCCAUGGUGAGCAAGGGCGAGGAGGAUAACAUGGCCAUCAUCAAGGAGUUCAUGCGCUUCAAGGUGCACAUGGAGGGCUCCGUGAACGGCCACGAGUUCGAGAUCGAGGGCGAGGGCGAGGGCCGCCCCUACGAGGGCACCCAGACCGCCAAGCUGAAGGUGACCAAGGGUGGCCCCCUGCCCUUCGCCUGGGACAUCCUGUCCCCUCAGUUCAUGUACGGCUCCAAGGCCUACGUGAAGCACCCCGCCGACAUCCCCGACUACUUGAAGCUGUCCUUCCCCGAGGGCUUCAAGUGGGAGCGCGUGAUGAACUUCGAGGACGGCGGCGUGGUGACCGUGACCCAGGACUCCUCCCUGCAGGACGGCGAGUUCAUCUACAAGGUGAAGCUGCGCGGCACCAACUUCCCCUCCGACGGCCCCGUAAUGCAGAAGAAGACCAUGGGCUGGGAGGCCUCCUCCGAGCGGAUGUACCCCGAGGACGGCGCCCUGAAGGGCGAGAUCAAGCAGAGGCUGAAGCUGAAGGACGGCGGCCACUACGACGCUGAGGUCAAGACCACCUACAAGGCCAAGAAGCCCGUGCAGCUGCCCGGCGCCUACAACGUCAACAUCAAGUUGGACAUCACCUCCCACAACGAGGACUACACCAUCGUGGAACAGUACGAACGCGCCGAGGGCCGCCACUCCACCGGCGGCAUGGACGAGCUGUACAAGGGCAGCUAAAGGGUGAUCUUGCCAUGUGUAUGUGGGAGACGGUCGGGUCCAUCUGAGACGGUCGGGUCCAGAUAUUCGUAUCUGUCGAGUAGAGUGUGGGCUCAGAUGUCGAGUAGAGUGUGGGCUCCCACAUACUCUGAUGAUCCAGACGGUCGGGUCCAUCUGAGACGGUCGGGUCCAGAUAUUCGUAUCUGUCGAGUAGAGUGUGGGCUCAGAUGUCGAGUAGAGUGUGGGCUGGAUCAUUCAUGGCAACGGCUGCUAACAAAGCCCGAAAGGAAGCUGAGUUGGCUGCUGCCACCGCUGAGCAAUAACUAGCAUAACCCCUUGGGGCCUCUAAACGGGUCUUGAGGGGUUUUUUGCUGAAAGGAGGAACU
Assay: fluorescence activation (in-gel staining; plate reader)
Conditions: PURExpress reaction with 10 μM DFHBI, 80.4 mM sucrose, 30 °C; also in-gel DFHBI staining; qualitative

CC1=N/C(=C\c2cc(F)c(O)c(F)c2)C(=O)N1C
binding: yes
